Laboratory results taken from patent US6710075B2, “Therapeutic compounds and methods” (The Government of the State of Sarawak, Malaysia, priority 2000, dated 2004).

Columns and labels:
K562 = test: Cytostatic activity, relative cell number by YOYO-1 DNA dye; assay type: cell-based; settings: Homo sapiens, 72 h; K562, leukemia; read-out: GI50 (3 day cultures)
Procedure: (§1) (b) Compound A was assessed for cytotoxic and cytostatic activity against a panel of cell lines derived from a variety of human tumour types in addition to THP-1 and A549 cells (Table 5). These included K562 leukemic cells (Lozzio and Lozzio, 1975, Blood 45:321-34), PC3 prostate tumour cells (Kaighn et al., 1979, Invest. Urol. 17:16-23) and SF268 glioblastoma cells (Westphal et al, 1985, Biochem. Biophys. Res. Commun., 132:284-9). […] However, the cytotoxic potency of Compound A increased dramatically after 6 days of culture for the K562, A549 and SF268 cells.

PC3 = test: as above; assay type: cell-based; settings: Homo sapiens, PC-3, 72 h; PC3, prostate; read-out: GI50 (3 day cultures)
Procedure: as §1

SF268 = test: as above; assay type: cell-based; settings: Homo sapiens, SF-268, 72 h; SF268, brain; read-out: GI50 (3 day cultures)
Procedure: as §1

[1] = test system: PC3 human prostate tumour cells; test: Mouse xenograft tumour model; assay type: in vivo; settings: 3 mg/kg intraperitoneal three times a week
Procedure: Athymic Balb/c nude mice (Rygard and Povisen, 1969, Acta Pathol Microbiol Scand, 77: 758) were inoculated subcutaneously in the dorsal flank with 2×10^6 PC3 cells. Compound A was administered (3 mg/kg) after eight days when the tumours became palpable by intraperitoneal injection three times a week. Compound A was first solubilized in ethanol then mixed 1:1 with cremaphore and diluted in saline for injection. Control animals were treated in an analogous manner with the same vehicle but lacking Compound A. (A) Effect of Compound A on mean tumour volume. Tumour volumes were measured using a micrometer caliper at the indicated times. The data represents mean tumour volume ±SEM (B) Effect of Compound A on mean tumour mass. At the end of the experiment (29 days post inoculation of PC3 cells) the mice were sacrificed, the tumours excised and then weighed. The data represents mean tumour weight ±SEM.
The ability of Compound A to inhibit growth of human tumour cells in vivo was assessed using male athymic mice injected subcutaneously in the dorsal flank region with 2×10^6 PC3 human prostate tumour cells. Compound A administration (3 mg/kg) by intraperitoneal injection commenced after eight days once the PC3 tumour was palpable and continued three times a week until 29 days after the initial inoculation of the tumour cells. At this time all mice were killed and tumours excised and weighed.

SMILES: COC(=O)[C@H]1[C@@H](O)[C@@]2(O)c3c(OC)cc(OC4OC(C(O)CO)COC4OC)cc3O[C@@]2(c2ccc(OC)cc2)[C@@H]1c1ccccc1 (single isomer, unassigned) [Compound A]
- GI50 (K562): 1 nM
- GI50 (PC3): 5 nM
- GI50 (SF268): 3 nM
- reduction of mean tumour weight ([1]; 29 days post inoculation): ~60%
- mean tumour volume ([1]; vs vehicle): greatly reduced increase in mean tumour volume
